Source: article PMC11257323, “Thermostabilization of a fungal laccase by entrapment in enzymatically synthesized levan nanoparticles” (PLOS ONE, 2024)

Target: T1, LevS△N70Tn38 (Leuconostoc mesenteroides, UniProt Q1L7R6)
T1 construct: truncated levansucrase LevS△N70Tn38 (name implies N-terminal 70-residue deletion); pET-22b, expressed in E. coli BL21, DEAE-purified
Experiment: DNS reducing-sugar assay
Assay type: biochemical
Conditions: 292 mM sucrose; 50 mM acetate pH 6.0; 1 mM CaCl2; 30°C

T1 sequence (Q1L7R6 entry or part of it): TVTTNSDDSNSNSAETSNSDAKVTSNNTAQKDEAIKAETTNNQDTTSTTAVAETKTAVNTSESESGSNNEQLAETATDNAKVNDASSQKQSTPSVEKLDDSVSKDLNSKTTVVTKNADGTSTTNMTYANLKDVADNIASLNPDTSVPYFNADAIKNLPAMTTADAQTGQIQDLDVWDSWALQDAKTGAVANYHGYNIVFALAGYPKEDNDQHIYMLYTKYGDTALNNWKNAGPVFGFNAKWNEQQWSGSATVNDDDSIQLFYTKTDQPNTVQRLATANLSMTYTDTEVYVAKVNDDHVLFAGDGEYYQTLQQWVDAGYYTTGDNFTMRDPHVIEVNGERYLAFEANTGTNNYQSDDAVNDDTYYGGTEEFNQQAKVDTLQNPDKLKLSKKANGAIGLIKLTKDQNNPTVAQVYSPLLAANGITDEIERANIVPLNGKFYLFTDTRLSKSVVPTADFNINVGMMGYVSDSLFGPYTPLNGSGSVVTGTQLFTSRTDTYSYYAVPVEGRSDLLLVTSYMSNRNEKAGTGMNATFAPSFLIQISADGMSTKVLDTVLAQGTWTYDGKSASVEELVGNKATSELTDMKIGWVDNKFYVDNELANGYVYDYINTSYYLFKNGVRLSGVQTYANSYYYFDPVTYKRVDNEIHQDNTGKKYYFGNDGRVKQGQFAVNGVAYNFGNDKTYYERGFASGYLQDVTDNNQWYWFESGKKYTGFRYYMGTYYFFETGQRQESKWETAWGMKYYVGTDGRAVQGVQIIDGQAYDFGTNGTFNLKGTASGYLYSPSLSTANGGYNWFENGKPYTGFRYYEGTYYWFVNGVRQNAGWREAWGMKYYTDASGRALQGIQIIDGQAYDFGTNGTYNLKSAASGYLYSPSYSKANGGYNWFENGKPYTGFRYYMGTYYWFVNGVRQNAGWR

With `OC[C@H]1O[C@@](CO)(O[C@H]2O[C@H](CO)[C@@H](O)[C@H](O)[C@H]2O)[C@@H](O)[C@@H]1O` [sucrose] the DNS reducing-sugar assay was “LevS△N70Tn38 activity was determined by quantification of released reducing sugars from sucrose”.
